Measured values from article PMC9909315, “SY-707, an ALK/FAK/IGF1R inhibitor, suppresses growth and metastasis of breast cancer cells” (Acta Biochimica et Biophysica Sinica, 2022).
Like-named read-outs stand apart in the source and are kept apart here.

Columns and labels:
FAK = FAK (Homo sapiens, UniProt Q05397); assay: HTRF kinase enzyme assay; format: biochemical; details: ATP at Km
Procedure: Homogeneous time-resolved fluorescence (HTRF) assay was performed to analyze kinase enzyme activity and compound potency using HTRF ® KinEASE ^TM-TK kit (Cisbio Bioassays, Shanghai, China). […] The resulted solutions were briefly mixed, centrifuged and incubated for 5 min. Finally, 2.5 μL of 4× ATP/TK peptide (ATP at K m for each kinase) solution was added to the reaction system to initiate the reaction. The enzymatic reaction was carried out for 60-120 min at 23°C, then terminated by addition of 5 μL of detection solution containing TK antibody-cryptate and 5 μL of Streptravidin-XL-665. The mixture was incubated for additional 1 h at 23°C. The fluorescent signals were measured with an EnVision multilabel plate reader (PerkinElmer). IC 50 values of the compounds were calculated using the GraFit software (Version 6.0) and presented as the mean of three independent experiments performed in duplicate.

ACK = ACK (Homo sapiens, UniProt Q07912); assay: HTRF kinase enzyme assay; format: biochemical; details: ATP at Km
ACK, sequence (Q07912 whole entry): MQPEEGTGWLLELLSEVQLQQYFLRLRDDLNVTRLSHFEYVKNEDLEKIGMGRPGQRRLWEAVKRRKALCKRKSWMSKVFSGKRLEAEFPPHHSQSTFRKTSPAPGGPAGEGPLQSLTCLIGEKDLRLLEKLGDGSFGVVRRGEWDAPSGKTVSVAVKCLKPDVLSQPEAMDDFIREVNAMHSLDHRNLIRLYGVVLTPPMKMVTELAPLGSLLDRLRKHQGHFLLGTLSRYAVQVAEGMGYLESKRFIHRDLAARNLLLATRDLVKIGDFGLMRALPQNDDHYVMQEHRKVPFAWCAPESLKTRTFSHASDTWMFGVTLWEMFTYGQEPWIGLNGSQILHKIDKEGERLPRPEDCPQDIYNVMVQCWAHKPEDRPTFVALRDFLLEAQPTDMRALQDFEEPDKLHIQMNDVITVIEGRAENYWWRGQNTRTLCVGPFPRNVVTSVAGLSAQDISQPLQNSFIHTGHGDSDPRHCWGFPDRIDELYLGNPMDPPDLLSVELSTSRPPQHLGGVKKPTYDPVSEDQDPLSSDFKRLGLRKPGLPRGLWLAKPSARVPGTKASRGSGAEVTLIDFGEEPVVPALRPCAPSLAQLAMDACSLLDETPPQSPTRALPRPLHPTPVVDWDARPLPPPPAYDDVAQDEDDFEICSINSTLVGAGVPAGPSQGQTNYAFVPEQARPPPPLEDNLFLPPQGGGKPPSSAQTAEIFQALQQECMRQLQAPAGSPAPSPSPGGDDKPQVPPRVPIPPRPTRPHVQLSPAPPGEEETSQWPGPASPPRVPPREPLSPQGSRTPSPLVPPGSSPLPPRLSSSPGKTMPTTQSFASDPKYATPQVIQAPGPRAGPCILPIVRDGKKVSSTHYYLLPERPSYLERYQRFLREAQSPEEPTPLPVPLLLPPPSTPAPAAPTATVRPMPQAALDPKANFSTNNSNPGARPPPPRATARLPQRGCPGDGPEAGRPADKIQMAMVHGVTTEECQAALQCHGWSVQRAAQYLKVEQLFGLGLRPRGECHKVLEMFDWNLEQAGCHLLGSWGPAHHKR
Procedure: (§1) Homogeneous time-resolved fluorescence (HTRF) assay was performed to analyze kinase enzyme activity and compound potency using HTRF ® KinEASE ^TM-TK kit (Cisbio Bioassays, Shanghai, China). Compound SY-707 was serially diluted by 3 folds from 1 mM stock solution in DMSO, and 4 μL of the diluted solution of the compounds was added to 96 μL of reaction buffer (50 mM HEPES, pH 7.0, 0.1 mM Na 3VO 4, 0.01% BAS, 5 mM MgCl 2, 1 mM DTT), then 2.5 μL of 4× compound solution and 5 μL of 2× kinases solution were added to a 384-well plate (OptiPlate-384; PerkinElmer, Wellesley, USA ). The resulted solutions were briefly mixed, centrifuged and incubated for 5 min. Finally, 2.5 μL of 4× ATP/TK peptide (ATP at K m for each kinase) solution was added to the reaction system to initiate the reaction. The enzymatic reaction was carried out for 60-120 min at 23°C, then terminated by addition of 5 μL of detection solution containing TK antibody-cryptate and 5 μL of Streptravidin-XL-665. The mixture was incubated for additional 1 h at 23°C. The fluorescent signals were measured with an EnVision multilabel plate reader (PerkinElmer). IC 50 values of the compounds were calculated using the GraFit software (Version 6.0) and presented as the mean of three independent experiments performed in duplicate.

ALK = ALK (Homo sapiens, UniProt Q9UM73); assay: HTRF kinase enzyme assay; format: biochemical; details: ATP at Km
ALK, sequence (Q9UM73 19-1620): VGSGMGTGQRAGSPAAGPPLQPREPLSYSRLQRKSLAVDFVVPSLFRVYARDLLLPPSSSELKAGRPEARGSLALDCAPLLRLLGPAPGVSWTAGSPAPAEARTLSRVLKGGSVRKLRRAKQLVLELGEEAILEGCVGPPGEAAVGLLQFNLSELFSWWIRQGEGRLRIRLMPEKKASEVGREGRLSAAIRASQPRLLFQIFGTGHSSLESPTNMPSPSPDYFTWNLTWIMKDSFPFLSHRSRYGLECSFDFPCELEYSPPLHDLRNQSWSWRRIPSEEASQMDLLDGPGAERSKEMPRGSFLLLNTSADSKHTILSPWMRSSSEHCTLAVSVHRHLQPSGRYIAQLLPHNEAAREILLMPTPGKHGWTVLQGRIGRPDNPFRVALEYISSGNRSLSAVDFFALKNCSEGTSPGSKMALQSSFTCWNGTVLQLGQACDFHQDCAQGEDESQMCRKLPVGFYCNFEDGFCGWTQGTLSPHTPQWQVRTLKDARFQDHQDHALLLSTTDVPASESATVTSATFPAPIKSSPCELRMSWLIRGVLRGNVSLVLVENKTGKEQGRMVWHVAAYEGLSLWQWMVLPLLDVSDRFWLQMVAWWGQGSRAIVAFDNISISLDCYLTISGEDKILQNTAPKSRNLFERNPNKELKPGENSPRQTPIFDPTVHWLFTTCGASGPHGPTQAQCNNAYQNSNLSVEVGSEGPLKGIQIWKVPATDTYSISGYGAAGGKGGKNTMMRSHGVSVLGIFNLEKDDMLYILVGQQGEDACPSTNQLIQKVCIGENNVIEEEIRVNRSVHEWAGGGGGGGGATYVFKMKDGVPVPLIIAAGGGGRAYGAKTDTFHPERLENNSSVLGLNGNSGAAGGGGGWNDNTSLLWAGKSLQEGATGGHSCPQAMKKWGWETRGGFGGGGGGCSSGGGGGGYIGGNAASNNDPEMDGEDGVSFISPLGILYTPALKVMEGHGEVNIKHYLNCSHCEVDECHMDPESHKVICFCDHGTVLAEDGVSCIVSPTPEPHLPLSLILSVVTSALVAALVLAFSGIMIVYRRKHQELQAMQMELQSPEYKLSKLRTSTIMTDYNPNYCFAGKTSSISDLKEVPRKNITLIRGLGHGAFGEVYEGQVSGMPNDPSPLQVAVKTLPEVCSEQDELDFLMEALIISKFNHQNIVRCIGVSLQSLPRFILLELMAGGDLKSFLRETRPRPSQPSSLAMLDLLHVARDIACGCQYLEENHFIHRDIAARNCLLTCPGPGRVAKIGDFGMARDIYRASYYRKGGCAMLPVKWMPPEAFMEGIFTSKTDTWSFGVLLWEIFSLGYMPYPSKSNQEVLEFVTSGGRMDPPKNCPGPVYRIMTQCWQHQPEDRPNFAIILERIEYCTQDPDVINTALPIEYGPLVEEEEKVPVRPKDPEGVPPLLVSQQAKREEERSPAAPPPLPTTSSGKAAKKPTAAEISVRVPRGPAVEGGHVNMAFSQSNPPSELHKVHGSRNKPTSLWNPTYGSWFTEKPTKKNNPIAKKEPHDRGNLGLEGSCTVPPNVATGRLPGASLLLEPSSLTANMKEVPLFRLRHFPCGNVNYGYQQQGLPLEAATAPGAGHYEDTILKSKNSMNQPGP
Procedure: as §1

FER = FER (Homo sapiens, UniProt P16591); assay: HTRF kinase enzyme assay; format: biochemical; details: ATP at Km
Procedure: as §1

FES = FES (Homo sapiens, UniProt P07332); assay: HTRF kinase enzyme assay; format: biochemical; details: ATP at Km
Procedure: as §1

IGF1R = IGF1R (Homo sapiens, UniProt P08069); assay: HTRF kinase enzyme assay; format: biochemical; details: ATP at Km
Procedure: as §1

IRK = IRK (Homo sapiens, UniProt P06213); assay: HTRF kinase enzyme assay; format: biochemical; details: ATP at Km
IRK, sequence (P06213 28-1382): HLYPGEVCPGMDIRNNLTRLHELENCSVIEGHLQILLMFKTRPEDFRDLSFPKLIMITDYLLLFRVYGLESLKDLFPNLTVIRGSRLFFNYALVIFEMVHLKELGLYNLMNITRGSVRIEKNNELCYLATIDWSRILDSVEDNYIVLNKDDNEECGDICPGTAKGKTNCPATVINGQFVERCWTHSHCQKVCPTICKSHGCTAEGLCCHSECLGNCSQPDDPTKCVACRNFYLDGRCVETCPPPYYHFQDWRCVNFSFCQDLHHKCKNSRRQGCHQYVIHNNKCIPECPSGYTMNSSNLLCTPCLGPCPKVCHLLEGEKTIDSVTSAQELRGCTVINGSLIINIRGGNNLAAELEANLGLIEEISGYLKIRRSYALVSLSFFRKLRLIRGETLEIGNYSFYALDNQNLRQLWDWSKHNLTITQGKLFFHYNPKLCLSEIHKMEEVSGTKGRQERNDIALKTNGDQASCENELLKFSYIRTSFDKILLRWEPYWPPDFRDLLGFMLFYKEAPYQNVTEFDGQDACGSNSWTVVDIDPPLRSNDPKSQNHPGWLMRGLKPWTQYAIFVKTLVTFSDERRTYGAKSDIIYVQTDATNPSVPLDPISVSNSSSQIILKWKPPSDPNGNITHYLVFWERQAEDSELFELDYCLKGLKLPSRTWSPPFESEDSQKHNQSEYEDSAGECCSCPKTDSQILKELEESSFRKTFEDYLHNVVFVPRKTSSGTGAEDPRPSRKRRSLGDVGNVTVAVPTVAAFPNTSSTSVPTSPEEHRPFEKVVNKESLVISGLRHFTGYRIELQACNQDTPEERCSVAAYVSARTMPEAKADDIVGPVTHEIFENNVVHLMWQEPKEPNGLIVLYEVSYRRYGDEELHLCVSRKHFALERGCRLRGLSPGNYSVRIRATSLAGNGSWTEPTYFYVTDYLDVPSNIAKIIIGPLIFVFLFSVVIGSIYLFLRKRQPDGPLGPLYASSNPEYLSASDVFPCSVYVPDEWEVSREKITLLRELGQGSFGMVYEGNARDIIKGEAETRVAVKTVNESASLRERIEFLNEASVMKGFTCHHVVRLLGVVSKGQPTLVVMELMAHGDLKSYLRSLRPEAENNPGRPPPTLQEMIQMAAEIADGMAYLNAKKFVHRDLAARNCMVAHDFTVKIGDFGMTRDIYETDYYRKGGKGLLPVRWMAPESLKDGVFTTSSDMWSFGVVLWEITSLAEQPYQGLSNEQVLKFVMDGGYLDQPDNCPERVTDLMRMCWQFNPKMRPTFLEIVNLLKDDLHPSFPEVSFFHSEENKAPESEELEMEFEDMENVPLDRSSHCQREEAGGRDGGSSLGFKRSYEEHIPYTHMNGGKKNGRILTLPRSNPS
Procedure: as §1

LTK = LTK (Homo sapiens, UniProt P29376); assay: HTRF kinase enzyme assay; format: biochemical; details: ATP at Km
Procedure: as §1

PYK2 = PYK2 (Homo sapiens, UniProt Q14289); assay: HTRF kinase enzyme assay; format: biochemical; details: ATP at Km
PYK2, sequence (Q14289 whole entry): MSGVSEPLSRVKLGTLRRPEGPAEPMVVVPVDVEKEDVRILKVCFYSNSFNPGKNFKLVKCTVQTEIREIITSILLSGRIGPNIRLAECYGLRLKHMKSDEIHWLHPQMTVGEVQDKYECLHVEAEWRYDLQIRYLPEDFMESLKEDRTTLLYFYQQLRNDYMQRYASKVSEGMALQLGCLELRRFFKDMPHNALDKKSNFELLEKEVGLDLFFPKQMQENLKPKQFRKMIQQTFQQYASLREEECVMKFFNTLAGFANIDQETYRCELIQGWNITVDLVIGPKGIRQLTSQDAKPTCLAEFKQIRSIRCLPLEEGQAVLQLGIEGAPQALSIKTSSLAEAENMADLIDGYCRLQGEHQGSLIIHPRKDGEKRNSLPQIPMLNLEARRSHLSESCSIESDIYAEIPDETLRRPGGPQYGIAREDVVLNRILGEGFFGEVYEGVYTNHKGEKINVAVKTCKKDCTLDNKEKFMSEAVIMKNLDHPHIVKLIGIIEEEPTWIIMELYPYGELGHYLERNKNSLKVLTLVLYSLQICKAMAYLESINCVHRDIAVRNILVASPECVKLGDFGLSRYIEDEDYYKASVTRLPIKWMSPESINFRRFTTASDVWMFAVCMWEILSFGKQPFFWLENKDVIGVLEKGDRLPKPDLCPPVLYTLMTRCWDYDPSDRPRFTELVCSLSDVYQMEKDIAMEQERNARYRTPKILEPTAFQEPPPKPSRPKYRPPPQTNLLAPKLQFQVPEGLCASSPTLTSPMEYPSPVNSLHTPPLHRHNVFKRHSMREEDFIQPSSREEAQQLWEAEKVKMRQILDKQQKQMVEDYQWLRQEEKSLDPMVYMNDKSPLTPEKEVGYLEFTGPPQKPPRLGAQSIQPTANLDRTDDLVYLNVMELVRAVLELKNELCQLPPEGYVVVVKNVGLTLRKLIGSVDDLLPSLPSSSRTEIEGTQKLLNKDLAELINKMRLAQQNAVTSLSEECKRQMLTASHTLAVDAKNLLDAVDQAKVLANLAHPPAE
Procedure: as §1

[1] = system: phosphorylation of Pyk2 at Tyr402; assay: Western blot of Pyk2 phosphorylation in T47D cells; format: cell-based; details: 1 h treatment
Procedure: Equal amounts of cell lysates were loaded onto 10% SDS-PAGE gel and separated by electrophoresis. Separated proteins were then electro-transferred onto polyvinylidene fluoride (PVDF) membranes (Millipore, Bedford, USA). After being blocked with Tris-buffered saline containing 0.1% Tween-20 (TBST) and 5% bovine serum albumin (BSA), the membranes were incubated with primary antibodies at room temperature for 2 hours or at 4°C, then washed with TBST, followed by treatment with horseradish peroxidase (HRP)-conjugated goat anti-rabbit IgG secondary antibody at room temperature for another 1 h. The targeted protein bands were visualized using an enhanced chemiluminescence (ECL) plus system (Thermo Fisher Scientific). […]
Figure4 Inhibitory effects of SY-707 on the phosphorylation of FAK(A,B) Concentration-dependent inhibition of SY-707 on phosphorylation of FAK in T47D (A) and MCF-7 (B) cells. […] Cell lysates were analyzed by western blot analysis using specific antibodies against p-FAK, p-Pyk2, p-AKT and p-ERK respectively. […] Cell lysates were analyzed by western blot analysis using specific antibodies against p-IGF1R, p-STAT3, p-AKT and p-ERK respectively.

Pharmacokinetic study = format: in vivo, beagle dogs; details: serum, Beagle dog, 5 mg/kg PO; for CL/F: read-out: Cl_F_obs (converted); for MRT inf: read-out: MRT INF_obs
Procedure: Female SD rats (5-6 weeks old) or beagle dogs were administrated with SY-707 at a single dose of 5 mg/kg, and blood samples were taken sequentially from 2 min to 24 h after compound administration. […] The serum samples were collected by centrifugation and stored at –80 °C. Compound concentrations in the sample serums were further analyzed with an API-4000 LC-MS/MS system (Applied Biosystem, Foster City, USA), and pharmacokinetic parameters ( T 1/2, T max, C max, AUC 0-INF, Cl_F_obs, MRT INF_obs, and F(%)) were calcuated using the WinNonlin software (version 6.2; WinNonlin Professional, Pharsight, USA).

COc1cc(N2CCC(N3CCN(C)CC3)CC2)ccc1Nc1nc2c(c(Nc3ccccc3S(=O)(=O)NC(C)C)n1)CCN2 [SY-707, N-isopropyl-2-((2-((2-methoxy-4-(4-(4-methylpiperazin-1-yl)piperidin-1-yl)phenyl)amino)-6,7-dihydro-5H-pyrrolo[2,3-d]pyrimidin-4-yl)amino)benzenesulfonamide] gave an IC50 (FAK) of 1.6 ± 0.5 nM, an IC50 (ACK) of 28.7 ± 3.5 nM and an IC50 (ALK) of 2.4 nM. It also gave an IC50 (FER) of 52.3 ± 2.3 nM, an IC50 (FES) of 81.8 ± 19 nM and an IC50 (IGF1R) of 10.6 ± 0.58 nM. The IC50 (IRK) was 7.9 ± 0.3 nM, the IC50 (LTK) was 1.9 ± 0.18 nM and the IC50 (PYK2) was 2.4 ± 0.8 nM. The “phosphorylation of Pyk2 at Tyr402” value [1] was “dose-dependently suppressed”, the AUC(0-inf) (Pharmacokinetic study; both sexes, All) was 459 ng·h/mL and the Cmax (Pharmacokinetic study; both sexes, All) was 36 ng/mL. For the same molecule, the Tmax (Pharmacokinetic study; both sexes, All) was 2.83 h, the bioavailability (Pharmacokinetic study; both sexes, All) was 21.1% and the half-life (Pharmacokinetic study; both sexes, All) was 9.72 h. It also gave a CL/F (Pharmacokinetic study; both sexes, All) of 195 mL/min/kg, an MRT inf (Pharmacokinetic study; both sexes, All) of 13.6 h and an AUC(0-inf) (Pharmacokinetic study; Female) of 438 ng·h/mL. The Cmax (Pharmacokinetic study; Female) was 34.2 ng/mL, the Tmax (Pharmacokinetic study; Female) was 2.67 h and the bioavailability (Pharmacokinetic study; Female) was 18.8%. For the same molecule, the half-life (Pharmacokinetic study; Female) was 10.1 h, the CL/F (Pharmacokinetic study; Female) was 202 mL/min/kg and the MRT inf (Pharmacokinetic study; Female) was 13.7 h. The AUC(0-inf) (Pharmacokinetic study; Male) was 479 ng·h/mL, the Cmax (Pharmacokinetic study; Male) was 37.8 ng/mL and the Tmax (Pharmacokinetic study; Male) was 3 h. For the same molecule, the bioavailability (Pharmacokinetic study; Male) was 23.8%, the half-life (Pharmacokinetic study; Male) was 9.33 h and the CL/F (Pharmacokinetic study; Male) was 188 mL/min/kg. For the same molecule, the MRT inf (Pharmacokinetic study; Male) was 13.6 h.
